From paper PMC10746543, “Design principles for cyclin K molecular glue degraders” (Nature Chemical Biology, 2023)
“And” between values parts separate entries of the source, which are not always exact repeats. Identical values can stand only once. Like-named read-outs stand apart in the source and are kept apart here.

Tests used:
CDK9–cyclin T = target: T1, CDK9–cyclin T (Homo sapiens, UniProt P50750); assay: Lanthascreen kinase binding assay, CDK9; conditions: Supplementary Table 2; read-out: Lanthascreen IC50 [nM] CDK9
T1 construct: purchased Thermo Fisher
Procedure: (§1) Lanthascreen experiments were performed using commercially available reagents (Thermo Fisher) and according to the manufacturer’s instructions.

CDK12–cyclin K = CDK12–cyclin K (Homo sapiens, UniProt Q9NYV4); assay: Lanthascreen kinase binding assay, CDK12; conditions: duplicates
Procedure: as §1

[1] = test system: cyclin K–eGFP degradation reporter; assay: Cyclin K reporter stability analysis (dual-color cyclin K–eGFP reporter); assay type: cell-based, human; conditions: for reporter assay signal (normalized): replicates
Method in brief: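 Readout: flow-cytometric eGFP/mCherry ratio (geometric means, round mCherry+ gate) relative to the average of three DMSO wells. Reporter line was HEK293T–Cas9, treated 5 h with compound.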

HEK293T cells = assay: Drug sensitivity assay (CellTiter-Glo viability) with or without MLN4924 pretreatment; assay type: cell-based, human; conditions: for EC50: Homo sapiens, HEK-293T
Method in brief: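 HEK293T–Cas9 cells at 0.15 × 10^6 ml^−1 were treated with DMSO or 100 nM MLN4924 before plating. Test drugs were added 2 h later and exposure lasted 3 days. Viability was read by CellTiter-Glo luminescence and expressed relative to DMSO controls.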

Chain of CDK12–cyclin K (Q9NYV4 713-1052): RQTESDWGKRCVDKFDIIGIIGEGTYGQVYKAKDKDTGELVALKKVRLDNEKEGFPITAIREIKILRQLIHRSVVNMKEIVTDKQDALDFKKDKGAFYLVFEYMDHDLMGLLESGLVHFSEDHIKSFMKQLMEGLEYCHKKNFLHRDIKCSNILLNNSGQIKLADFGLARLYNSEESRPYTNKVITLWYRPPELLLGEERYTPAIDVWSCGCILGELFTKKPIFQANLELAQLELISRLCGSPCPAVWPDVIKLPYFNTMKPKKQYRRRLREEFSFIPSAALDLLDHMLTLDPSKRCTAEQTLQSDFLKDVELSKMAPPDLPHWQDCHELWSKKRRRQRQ
Chain of CDK12–cyclin K (O75909 1-267 partner limits assumed): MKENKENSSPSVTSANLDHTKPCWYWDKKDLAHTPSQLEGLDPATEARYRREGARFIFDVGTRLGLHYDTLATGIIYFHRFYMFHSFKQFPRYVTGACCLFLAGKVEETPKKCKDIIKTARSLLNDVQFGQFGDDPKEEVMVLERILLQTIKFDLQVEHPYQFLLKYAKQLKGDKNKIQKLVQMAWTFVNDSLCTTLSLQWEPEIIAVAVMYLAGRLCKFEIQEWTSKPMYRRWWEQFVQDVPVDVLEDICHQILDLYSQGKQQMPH
T1 sequence (P50750 whole entry): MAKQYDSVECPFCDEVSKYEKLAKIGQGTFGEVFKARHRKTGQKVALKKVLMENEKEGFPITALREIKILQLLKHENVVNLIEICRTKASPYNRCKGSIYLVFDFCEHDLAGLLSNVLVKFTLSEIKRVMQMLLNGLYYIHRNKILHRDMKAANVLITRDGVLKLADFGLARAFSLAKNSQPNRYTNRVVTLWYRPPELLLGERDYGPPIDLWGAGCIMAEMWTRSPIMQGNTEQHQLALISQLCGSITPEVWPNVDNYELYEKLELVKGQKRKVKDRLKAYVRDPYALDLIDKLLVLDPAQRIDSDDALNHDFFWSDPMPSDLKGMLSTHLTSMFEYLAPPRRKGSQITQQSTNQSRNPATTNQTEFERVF
T1 sequence (O60563 whole entry partner): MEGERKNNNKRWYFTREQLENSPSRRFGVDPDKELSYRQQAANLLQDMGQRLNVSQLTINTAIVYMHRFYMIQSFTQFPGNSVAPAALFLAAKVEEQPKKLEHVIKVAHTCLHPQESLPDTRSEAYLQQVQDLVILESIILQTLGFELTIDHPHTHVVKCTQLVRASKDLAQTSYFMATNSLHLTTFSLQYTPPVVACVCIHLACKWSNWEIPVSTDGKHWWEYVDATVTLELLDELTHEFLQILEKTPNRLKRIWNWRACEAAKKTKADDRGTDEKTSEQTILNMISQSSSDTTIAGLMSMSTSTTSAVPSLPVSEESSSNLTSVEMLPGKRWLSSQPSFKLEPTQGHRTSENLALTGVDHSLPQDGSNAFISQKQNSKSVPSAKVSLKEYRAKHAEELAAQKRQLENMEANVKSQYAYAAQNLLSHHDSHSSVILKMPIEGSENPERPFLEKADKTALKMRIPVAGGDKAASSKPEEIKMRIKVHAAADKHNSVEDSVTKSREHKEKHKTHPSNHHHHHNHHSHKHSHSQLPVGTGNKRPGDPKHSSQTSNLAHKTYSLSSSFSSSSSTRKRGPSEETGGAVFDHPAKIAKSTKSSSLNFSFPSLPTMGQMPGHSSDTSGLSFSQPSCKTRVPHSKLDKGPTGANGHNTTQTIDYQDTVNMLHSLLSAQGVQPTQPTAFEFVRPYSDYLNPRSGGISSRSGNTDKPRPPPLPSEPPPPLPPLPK

IC50 (CDK9–cyclin T): 44 nM
Lanthascreen raw signal, sheet CDK12 (CDK12–cyclin K; compound 0.038147 nM, series r37): 0.01304 and 0.01325
Lanthascreen raw signal, sheet CDK12 (CDK12–cyclin K; compound 0.038147 nM, series r49): 0.007695 and 0.007446
Lanthascreen raw signal, sheet CDK12 (CDK12–cyclin K; compound 0.152588 nM, series r37): 0.01428 and 0.01359
Lanthascreen raw signal, sheet CDK12 (CDK12–cyclin K; compound 0.152588 nM, series r49): 0.009378 and 0.01005
Lanthascreen raw signal, sheet CDK12 (CDK12–cyclin K; compound 0.610352 nM, series r37): 0.015 and 0.0141
Lanthascreen raw signal, sheet CDK12 (CDK12–cyclin K; compound 0.610352 nM, series r49): 0.009165 and 0.0112
Lanthascreen raw signal, sheet CDK12 (CDK12–cyclin K; compound 0.76 nM, series r25): 0.01077 and 0.009668
Lanthascreen raw signal, sheet CDK12 (CDK12–cyclin K; compound 1.02544 nM, series r1): 0.009016 and 0.007993
Lanthascreen raw signal, sheet CDK12 (CDK12–cyclin K; compound 3.15521 nM, series r1): 0.009443 and 0.008694
Lanthascreen raw signal, sheet CDK12 (CDK12–cyclin K; compound 4.57247 nM, series r25): 0.009656 and 0.009902
Lanthascreen raw signal, sheet CDK12 (CDK12–cyclin K; compound 9.46563 nM, series r1): 0.008963 and 0.008112
Lanthascreen raw signal, sheet CDK12 (CDK12–cyclin K; compound 9.76563 nM, series r37): 0.01368 and 0.01299
Lanthascreen raw signal, sheet CDK12 (CDK12–cyclin K; compound 9.76563 nM, series r49): 0.009408 and 0.009212
Lanthascreen raw signal, sheet CDK12 (CDK12–cyclin K; compound 13.7174 nM, series r25): 0.01017 and 0.01059
Lanthascreen raw signal, sheet CDK12 (CDK12–cyclin K; compound 31.5521 nM, series r1): 0.006752 and 0.007539
Lanthascreen raw signal, sheet CDK12 (CDK12–cyclin K; compound 39.0625 nM, series r37): 0.01193 and 0.01223
Lanthascreen raw signal, sheet CDK12 (CDK12–cyclin K; compound 39.0625 nM, series r49): 0.009305 and 0.008784
Lanthascreen raw signal, sheet CDK12 (CDK12–cyclin K; compound 41.1523 nM, series r25): 0.009709 and 0.009531
Lanthascreen raw signal, sheet CDK12 (CDK12–cyclin K; compound 99.3891 nM, series r1): 0.006201 and 0.006527
Lanthascreen raw signal, sheet CDK12 (CDK12–cyclin K; compound 123.457 nM, series r25): 0.008131 and 0.007441
Lanthascreen raw signal, sheet CDK12 (CDK12–cyclin K; compound 156.25 nM, series r37): 0.00959 and 0.00993
Lanthascreen raw signal, sheet CDK12 (CDK12–cyclin K; compound 156.25 nM, series r49): 0.007819 and 0.007288
Lanthascreen raw signal, sheet CDK12 (CDK12–cyclin K; compound 315.521 nM, series r1): 0.007121 and 0.006383
Lanthascreen raw signal, sheet CDK12 (CDK12–cyclin K; compound 370.37 nM, series r25): 0.007201 and 0.007104
Lanthascreen raw signal, sheet CDK12 (CDK12–cyclin K; compound 625 nM, series r37): 0.007458 and 0.007383
Lanthascreen raw signal, sheet CDK12 (CDK12–cyclin K; compound 625 nM, series r49): 0.006302 and 0.006427
Lanthascreen raw signal, sheet CDK12 (CDK12–cyclin K; compound 2500 nM, series r37): 0.006338 and 0.006017
Lanthascreen raw signal, sheet CDK12 (CDK12–cyclin K; compound 2500 nM, series r49): 0.006233 and 0.005662
Lanthascreen raw signal, sheet CDK12 (CDK12–cyclin K; compound 3155.21 nM, series r1): 0.005736 and 0.005607
Lanthascreen raw signal, sheet CDK12 (CDK12–cyclin K; compound 3333.33 nM, series r25): 0.00631 and 0.006815
Lanthascreen raw signal, sheet CDK12 (CDK12–cyclin K; compound 10000 nM, series r25): 0.004829 and 0.005941
Lanthascreen raw signal, sheet CDK12 (CDK12–cyclin K; compound 10000 nM, series r37): 0.006588 and 0.005825
Lanthascreen raw signal, sheet CDK12 (CDK12–cyclin K; compound 10000 nM, series r49): 0.006042 and 0.005923
Lanthascreen raw signal, sheet CDK12 (CDK12–cyclin K; compound 10002 nM, series r1): 0.006385 and 0.006398
DC50 ([1]; Supplementary Fig. 4, HEK293T cycKeGFP reporter, 5h, n=2, read-out: DC50 printed on reporter plot): 15 nM
DC50 ([1]; source data sheet correlations, read-out: DC50): 24 nM
Structure (SMILES): CCC(CO)Nc1nc(NCc2ccc(-c3ccccn3)cc2)c2ncn(C(C)C)c2n1 (stereo not drawn) [CR8, reference compound]
reporter assay signal (normalized) ([1]; 2 nM): 0.8972 and 0.9042
reporter assay signal (normalized) ([1]; 3 nM): 0.9215 and 0.8933
reporter assay signal (normalized) ([1]; 4.5 nM): 0.9042 and 0.8823
reporter assay signal (normalized) ([1]; 7.68 nM): 0.8744 and 0.8637
reporter assay signal (normalized) ([1]; 22.8 nM): 0.7879 and 0.7853
reporter assay signal (normalized) ([1]; 34.2 nM): 0.7383 and 0.7347
reporter assay signal (normalized) ([1]; 51.3 nM): 0.6912 and 0.706
reporter assay signal (normalized) ([1]; 77 nM): 0.6707 and 0.6773
reporter assay signal (normalized) ([1]; 260 nM): 0.5992 and 0.6647
reporter assay signal (normalized) ([1]; 390 nM): 0.6455 and 0.6368
reporter assay signal (normalized) ([1]; 585 nM): 0.6031 and 0.6411
reporter assay signal (normalized) ([1]; 877 nM): 0.5764 and 0.6073
reporter assay signal (normalized) ([1]; 1970 nM): 0.6031 and 0.6571
reporter assay signal (normalized) ([1]; 2960 nM): 0.6526 and 0.6453
reporter assay signal (normalized) ([1]; 4440 nM): 0.6125 and 0.6655
reporter assay signal (normalized) ([1]; 6670 nM): 0.6345 and 0.6267
reporter assay signal (normalized) ([1]; 10000 nM): 0.6031 and 0.6495
cyclin K reporter degradation, result in words ([1]; HEK293T): potent degraders
viability assay signal (normalized) (HEK293T cells; 2 nM, + MLN4924): 1.107 and 1.008
viability assay signal (normalized) (HEK293T cells; 2 nM, without MLN4924): 1.041 and 1.037
viability assay signal (normalized) (HEK293T cells; 4.69 nM, + MLN4924): 1.279 and 1.055
viability assay signal (normalized) (HEK293T cells; 4.69 nM, without MLN4924): 1.03 and 1.007
viability assay signal (normalized) (HEK293T cells; 11 nM, + MLN4924): 1.009 and 1.091
viability assay signal (normalized) (HEK293T cells; 11 nM, without MLN4924): 1.0171 and 1.083
viability assay signal (normalized) (HEK293T cells; 25.7 nM, + MLN4924): 1.13 and 1.18
viability assay signal (normalized) (HEK293T cells; 25.7 nM, without MLN4924): 0.9174 and 1.057
viability assay signal (normalized) (HEK293T cells; 141 nM, + MLN4924): 1.076 and 1.102
viability assay signal (normalized) (HEK293T cells; 141 nM, without MLN4924): 0.4857 and 0.5122
viability assay signal (normalized) (HEK293T cells; 331 nM, + MLN4924): 0.8705 and 0.873
viability assay signal (normalized) (HEK293T cells; 331 nM, without MLN4924): 0.3951 and 0.3542
viability assay signal (normalized) (HEK293T cells; 4270 nM, + MLN4924): 0.4449 and 0.4383
viability assay signal (normalized) (HEK293T cells; 4270 nM, without MLN4924): 0.4332 and 0.4197
viability assay signal (normalized) (HEK293T cells; 10000 nM, + MLN4924): 0.4134 and 0.5002
viability assay signal (normalized) (HEK293T cells; 10000 nM, without MLN4924): 0.424 and 0.4316
EC50 (HEK293T cells; Supplementary Fig. 5, HEK293T, CellTiter Glo, 72h, pre-treatment with 100 nM MLN4924, read-out: Viability EC50, with MLN4924): 519 nM
EC50 (HEK293T cells; Supplementary Fig. 5, HEK293T, CellTiter Glo, 72h, read-out: Viability EC50, no MLN4924): 78 nM
EC50 (HEK293T cells; Supplementary Table 2, HEK293T viability, 72 h, compound alone, read-out: Cellular assays EC50): 159 nM
Toxicity rescue (HEK293T cells; Supplementary Table 2, MLN4924-mediated cytotoxicity rescue, 10 µM used where n.d.): 342%
